| melting point [°C] | Compound |
| --- | --- |
| 152 | COc1ccc2ccc(N3C(=O)c4ccccc4C3CC(=O)CCCO)nc2n1 (centres undefined) |
| 195 | O=C1c2cccc(NC(=S)Nc3ccccn3)c2C2CCCCN12 (centres undefined) |
| 131 to 132 | CCOC(=O)c1cccc(C(=O)O)c1 |
| 92 to 95 | O=C1N(Cc2ccc(C(F)(F)F)o2)c2ccc(F)cc2C1(CO)c1cc2c(cc1O)OCO2 (centres undefined) |
| 290 | Nc1ccn([C@@]2(O)CC=C(P(=O)(O)O)O[C@@H]2CO)c(=O)n1 |
| 151 to 152 | CC(=O)c1cc(CO)c(O)cc1O |
| 108 to 112 | CCc1nc2c(C)cc(C)cc2n1-c1ccc(CCNC(=O)NS(=O)(=O)c2ccc(C)cc2)cc1 |
| 235 to 237 | CN1c2ccccc2NC(=O)c2cccnc21 |
| 200 | O=C(Nc1ccccc1)N1Cc2sccc2C(O)C1 (centres undefined) |
| 90 to 93 | CCOC(=O)N1CCN(c2nc(N(C(C)=O)C3CC3)ccc2[N+](=O)[O-])CC1 |
| 191 to 192 | O=C(c1ccc(Cc2ccc(F)cc2)o1)c1occ(Br)c(=O)c1O |
| 68 | COc1c(N)cc(Cl)c(OC)c1[N+](=O)[O-] |
| 62 to 65 | COc1ccc2c(c1OC)C1(COc3cc4c(cc31)OCCO4)C(=O)N2Cc1ccc(C(F)(F)F)o1 (centres undefined) |
| 213 to 217 | CC1=NC2(O)c3cc(-c4ccc(C(F)(F)F)cc4)ccc3CC2S1 (centres undefined) |
| 200 | Nc1nc2cc3c(cc2s1)OCO3 |
| 175 to 177 | Cc1cccc(N2CCN(CCCCc3ccc(C(CCC(=O)O)=NO)cc3)CC2)c1 |
| 138 to 139 | O=c1ccn(CCCO)c(CO)c1O |
| 90 | FC(F)(F)c1ccc2c(Cl)nccc2n1 |
| 151 to 153 | OCc1c(C(F)(F)F)nn2ccc3c(c12)CCO3 |
| 152 to 154 | COc1ccc(-c2c(Cl)nc(C)nc2NS(=O)(=O)c2ccc(OC)cc2)cc1 |
| 155 to 157 | Cc1ccc(OCC#CI)cn1 |
| 115 to 117 | C[C@H](c1ccccc1)N1C(=O)c2cccc([N+](=O)[O-])c2C1=O |
| 247 to 250 | Cc1c(Cl)cc(-c2ccc(=O)[nH]n2)cc1Br |
| 235 to 236 | Cc1c(NC(=O)Nc2ccc(-n3nc(C(F)(F)F)cc3C(F)(F)F)cc2)cccc1[N+](=O)[O-] |

| melting point [°C] | Compound |
| --- | --- |
| 163 to 164 | Cc1ncccc1COc1ccc2cc(Cn3cc(CCC(=O)O)c(-c4ccccc4)c3)ccc2c1 |
| 272 to 273 | O=S1(=O)CCN(CCCN2CCc3sc(Nc4ncc(F)cn4)nc3-c3c[nH]nc32)CC1 |
| 204 to 207 | CC1(C)CC(=O)C2=C(C1)NC1=C(C(=O)CC(C)(C)C1)C2c1cccc(Oc2cnccn2)c1 |
| 211 | COc1ccc(Cl)c(Oc2cnc(-c3ncccn3)nc2C=O)c1 |
| 239 to 241 | CSCc1c[nH]c(=O)[nH]c1=O |
| 112 | CC(C)CCNC(=O)c1ccccc1-c1ccccc1CNC(=O)OCc1ccccc1 |
| 166 to 169 | Nc1nc(-n2cc(C(=O)O)c(=O)c3cc(F)c(NCC(O)CO)c(Cl)c32)c(F)cc1F (centres undefined) |
| 97 | CC(O)CNC1(F)C=CC(N)=C([N+](=O)[O-])C1 (centres undefined) |
| 137 to 140 | CC(C)(C)N(NC(=O)c1ccccn1)C(=O)c1ccccc1[N+](=O)[O-] |
| 82 to 83 | CC(=O)c1sc(N2CCN(CCC3CC3)C2=O)nc1C |
| 92 to 96 | CN(C)C(=O)N1CCC(Oc2c(F)c(F)c(F)c(F)c2F)(c2ccccc2)CC1 |
| 108 | Cc1cc(C(=O)N2Cc3cccn3Cc3ccccc32)ccc1C1=CCCc2ccccc21 |
| 89 to 90 | CCOC(=O)c1cc2cc(C=O)cc(C(C)CC)c2oc1=O (centres undefined) |
| 187 to 190 | CCOC(=O)CCCCCCn1c(=O)c(=O)[nH]c2cc(Br)ccc21 |
| 213 to 215 | Cn1nc(N)c(C(N)=O)c1N |
| 148 to 150 | COc1ccc(OC)c(Sc2nc3c(N)ncnc3n2CCC=C(C)C)c1 |
| 56 to 57 | C=CCc1c(OC)cc(C(=O)O)cc1OC |
| 84 to 90 | Cc1cc2c(c(C(C)(C)C)c1)OC(=O)C2c1ccc2c(c1)c1ccccc1n2C (centres undefined) |
| 196 to 199 | O=C1Nc2ccccc2C12CCCC(Br)C2 (centres undefined) |
| 176 to 177 | CC(=O)Nc1cc(C(C)(C)CC(C)(C)C)ccc1O |
| 67 to 72 | c1ccc(C(c2ccccc2)N2CCN(CCOc3ccccc3-c3nc4ccccc4s3)CC2)cc1 |
| 249 to 251 | O=C1CCCc2ccc(Nc3ncc(Cl)c(Nc4ccccc4S(=O)(=O)N4CCCC4)n3)cc2N1 |
| 174 to 176 | O=C1Nc2ccccc2N(C(=O)N2CCCC(CCCN3CCCC3)C2)c2ncccc21 (centres undefined) |
| 200 | NC(=O)N1CCNC1=O |

| melting point [°C] | Compound |
| --- | --- |
| 116 to 118 | CCCC(C(N)=O)n1cc(C)c(-c2ccccc2)n1 (centres undefined) |
| 70 to 72 | c1ccc(CN2CC3CC2CN3C2=Nc3ccccc3Oc3ccccc32)cc1 (centres undefined) |
| 134 to 135 | Cc1oc(-c2ccccc2)nc1CCOc1ccc(COc2ncccc2CC(=O)O)cc1 |
| 96 to 98 | CCOC(=O)C1=CC(=O)C2(C(=O)c3ccccc3)OC2O1 (centres undefined) |
| 97.3 to 98.2 | Nc1c(-c2ccc(O)cc2)ncnc1-c1ccc(Cl)cc1Cl |
| 153 to 155 | COc1ccc2c(c1)c(CC(=O)ON(C(N)=O)C(C)c1cc3ccccc3s1)c(C)n2C(=O)c1ccc(Cl)cc1 (centres undefined) |
| 130 | COC(=O)c1cc2ccc(OC)cc2n1CCN1CCC(NCc2cc3c(cn2)OCCO3)CC1 |
| 206 | BrC(c1ccccc1)(c1ccccc1)C1(c2ccccc2)OCCO1 |
| 206 to 208 | CN(C)C(=O)N(C)Cc1cccc2c1C(=O)N(C1CCC(=O)NC1=O)C2=O (centres undefined) |
| 189 | COc1cc(N)c(Cl)cc1C(=O)N[C@H]1CCN(Cc2cccnc2)C[C@H]1OC (relative stereo) |
| 86 to 87 | C=C1CCN([C@H](C)[C@](O)(Cn2cncn2)c2ccc(F)cc2F)CC1 |
| 124 to 130 | CC(C)c1cc(C(C)C)c(S(=O)(=O)n2cc3c4c(cccc42)C(=O)CC3)c(C(C)C)c1 |
| 236 | Nc1ccc(-c2nccc(-c3nc(-c4ccc(C(F)(F)F)cc4)cc(C(F)(F)F)n3)n2)cn1 |
| 155 to 156 | CC(CN(C(=O)c1ccco1)c1c(C)cccc1C)=NO |
| 80 to 85 | CC1(CN2CCN(c3cccc4c3OCCO4)CC2)N=C(c2ccccc2)NC1=O (centres undefined) |
| 234 to 236 | CC(=O)c1ccc2c(c1)C(C(=O)Nc1cccc(C(=O)Nc3ccc(Br)cc3)c1)C(=O)N2C (centres undefined) |
| 34 to 36 | COCc1cccc(CC#N)c1[N+](=O)[O-] |
| 200 to 204 | CN(C)c1cccc(-c2nc3c(N[C@H]4[C@@H](C(N)=O)[C@@H]5C=C[C@H]4C5)ccnc3[nH]2)c1 |
| 149 to 150 | c1ccc2c(c1)nc1c3c(onc32)CCC1 |
| 158 to 160 | CCOC(=O)c1cc2ccccc2nn1 |
| 98 to 100 | COc1cccc2sc(-c3ccc(C)cc3)nc12 |
| 80 to 81 | COC(=O)C=C1CCCCC1c1cc(OC)cc(OC)c1 (centres undefined) |
| 193 to 196 | CNC(=O)n1nc(-c2ccc(Cl)cc2)nc1N |
| 101 | CCCCCCCCOc1ccc(-c2ccc(CCl)cc2)cc1 |

| melting point [°C] | Compound |
| --- | --- |
| 87 to 89 | Cc1cccc(N2CCN(CCCc3ccc(C4CCC(=O)N4)cc3)CC2)c1 (centres undefined) |
| 208 to 210 | COc1c(Cl)cccc1N1CN(C)C(=S)n2ncnc21 |
| 23 | CCCCC1COC(c2ccc(OC(F)(F)F)cc2)OC1 (centres undefined) |
| 78 to 94 | CSC(=NC(=O)c1ccccc1)Nc1ccccc1 |
| 179 to 181 | COc1cc(C)c2c(c1OC)CCC1C(=O)NC(=O)C21 (centres undefined) |
| 180 to 181 | COC(=O)C1=C(CC(=O)N2CCN(C)CC2)NC(CS(=O)c2ccccc2Cl)=C(C(=O)OC)C1c1c(Cl)cccc1Cl (centres undefined) |
| 165 to 166 | Cc1nc(N2CCN(Cc3ccc(OC(F)(F)F)cc3)C2=O)sc1C(=O)NCc1cccnc1 |
| 72 to 74 | O=C(Cl)c1cccnc1Oc1cccc(Cl)c1 |
| 127 to 129 | CCCc1c(OCCCCCCc2cccc(OCC(=O)O)c2CCC(=O)O)ccc2c1OCCC2=O |
| 118 to 120 | CCc1nc2c(cnn2CC)c(NC2CCOCC2)c1CNC(=O)c1cccc(C(=O)NCc2ccc(C)c(-c3cccc(CN4CCCNCC4)c3)c2)c1 |
| 265 to 266 | Oc1cccc(Nc2n[nH]c3ncnc(Nc4cccc(Cl)c4)c23)c1 |
| 42 to 44 | CN(C(C)(C)CC(=O)Oc1ccccc1C(C)(C)C)S(=O)(=O)C(F)(F)F |
| 167 | COC(=O)C1=C(C)NC(N)=C(C(=O)OC(C)C)C1c1cccc([N+](=O)[O-])c1 (centres undefined) |
| 110 to 111 | CCOC(=O)C(CCCCCc1ccc(Cl)cc1)C(N)=O (centres undefined) |
| 211 | CS(=O)(=O)C(=C1CN(C(c2ccccc2)c2ccccc2)C1)c1ccc(O)cc1 |
| 114 to 117 | O=C(NCCC12CC3CC(CC(C3)C1)C2)c1cc(-c2ccccc2C(=O)O)ccc1Cl |
| 114 to 115 | CN(C)c1ccccc1CS(=O)c1cnc2ccccc2n1 (centres undefined) |
| 130 to 131 | Cc1cc(Cl)ccc1N=c1ssnc1Cl |
| 174 to 179 | CCn1c(Oc2cccc(N3CCC4(CC3)OCCO4)c2)nnc1[C@@H](C)NS(=O)(=O)c1ccc(Cl)c(Cl)c1 |
| 152 | Cc1c([N+](=O)[O-])c(=O)n(C)c(=O)n1C |
| 229 to 230 | CCOC(=O)c1cn2c(cc(Cl)c3ccc(Cl)cc32)n1 |
| 279 to 280 | CC(C)Sc1cc2c(cc1Cl)N=C(C(N)=O)NS2(=O)=O |

| Compound | melting point [°C] |
| --- | --- |
| COCC(OC(C)=O)C1CC(OC(C)=O)C2(C)CCC3C(CCC4CC(=O)CC(C)C43C)C12 (centres undefined) | 149 to 150 |
| COc1ccc(C(=O)c2cn(C)c3ccc([N+](=O)[O-])cc23)cc1 | 229 |
| COC(=O)c1ncn2c1CN=C(c1ccccc1Cl)c1cc(Cl)ccc1-2 | 206 to 208 |
| OC1(c2ccc(F)cc2)CCC2CNCCC2C1 (centres undefined) | 174 to 175 |
| FC(F)(F)c1ccccc1P(=S)(S)c1ccccc1C(F)(F)F | 93 to 94 |
